According to article PMC5218480 (PLoS ONE, 2017):

Tested on: MV-4-11 cells
Assay: Gene expression microarray analysis (Affymetrix PrimeView) and GSEA
Type: cell-based, human
Set-up: RFU PODN (11730768_x_at) / Fold change /veh PODN (11730768_x_at) / RFU LINC00158 (11744669_a_at) / Fold change /veh LINC00158 (11744669_a_at) / RFU DUSP10 (11751237_a_at) / Fold change /veh DUSP10 (11751237_a_at) / RFU ID3 (11757404_x_at) / Fold change /veh ID3 (11757404_x_at) / RFU PLEKHG5 (11737974_s_at) / Fold change /veh PLEKHG5 (11737974_s_at) / RFU LRRC4B (11730491_at) / Fold change /veh LRRC4B (11730491_at) / RFU GIMAP4 (11747438_a_at) / Fold change /veh GIMAP4 (11747438_a_at) / RFU KRT8 (11758183_x_at) / Fold change /veh KRT8 (11758183_x_at) / RFU CNN1 (11734310_a_at) / Fold change /veh CNN1 (11734310_a_at) / RFU VPS37D (11726825_at) / Fold change /veh VPS37D (11726825_at) / RFU C10orf10 (11716522_x_at) / Fold change /veh C10orf10 (11716522_x_at) / RFU KIR2DL2 /// KIR2DL4 /// KIR2DL5A /// KIR2DL5B /// KIR2DS1 /// KIR2DS2 /// KIR2DS3 /// KIR2DS4 /// KIR3DL3 /// KIR3DL3 /// KIR3DS1 (11738374_at) / Fold change /veh KIR2DL2 /// KIR2DL4 /// KIR2DL5A /// KIR2DL5B /// KIR2DS1 /// KIR2DS2 /// KIR2DS3 /// KIR2DS4 /// KIR3DL3 /// KIR3DL3 /// KIR3DS1 (11738374_at) / RFU C1QL1 (11718748_at) / Fold change /veh C1QL1 (11718748_at) / RFU TMPRSS4 (11747572_a_at) / Fold change /veh TMPRSS4 (11747572_a_at) / RFU HAMP (11756126_x_at) / Fold change /veh HAMP (11756126_x_at) / RFU RNFT2 (11725882_a_at) / Fold change /veh RNFT2 (11725882_a_at) / RFU NR4A2 (11747474_a_at) / Fold change /veh NR4A2 (11747474_a_at) / RFU ABCC12 (11746883_a_at) / Fold change /veh ABCC12 (11746883_a_at) / RFU TMEM136 (11760407_x_at) / Fold change /veh TMEM136 (11760407_x_at) / RFU CLDN22 /// WWC2 (11732394_at) / Fold change /veh CLDN22 /// WWC2 (11732394_at) / RFU HLA-DPB1 (11760878_x_at) / Fold change /veh HLA-DPB1 (11760878_x_at) / RFU SPINT1 (11716480_a_at) / Fold change /veh SPINT1 (11716480_a_at) / RFU GAP43 (11754022_s_at) / Fold change /veh GAP43 (11754022_s_at) / RFU A4GNT (11735810_at) / Fold change /veh A4GNT (11735810_at) / RFU PRB3 (11715151_x_at) / Fold change /veh PRB3 (11715151_x_at) / RFU TUBB4B (11761932_at) / Fold change /veh TUBB4B (11761932_at) / RFU CAPN14 (11732068_a_at) / Fold change /veh CAPN14 (11732068_a_at) / RFU TMCC2 (11721928_a_at) / Fold change /veh TMCC2 (11721928_a_at) / RFU IRGQ (11745062_a_at) / Fold change /veh IRGQ (11745062_a_at) / RFU FAM174B (11720279_a_at) / Fold change /veh FAM174B (11720279_a_at) / RFU TMPRSS4 (11748680_a_at) / Fold change /veh TMPRSS4 (11748680_a_at) / RFU FAM212B (11763350_a_at) / Fold change /veh FAM212B (11763350_a_at) / RFU PLEKHG5 (11743358_a_at) / Fold change /veh PLEKHG5 (11743358_a_at) / RFU ZSCAN30 (11745921_a_at) / Fold change /veh ZSCAN30 (11745921_a_at) / RFU CMKLR1 (11741424_a_at) / Fold change /veh CMKLR1 (11741424_a_at) / RFU LOC101060620 /// MAPK8IP1 (11723275_at) / Fold change /veh LOC101060620 /// MAPK8IP1 (11723275_at) / RFU SPTSSB (11747773_x_at) / Fold change /veh SPTSSB (11747773_x_at) / RFU PRSS12 (11739890_at) / Fold change /veh PRSS12 (11739890_at) / RFU BIN1 (11741810_x_at) / Fold change /veh BIN1 (11741810_x_at) / RFU WNT11 (11732464_a_at) / Fold change /veh WNT11 (11732464_a_at) / RFU C10orf10 (11716521_a_at) / Fold change /veh C10orf10 (11716521_a_at) / RFU C5orf56 (11738089_at) / Fold change /veh C5orf56 (11738089_at) / RFU CYB561 (11721691_x_at) / Fold change /veh CYB561 (11721691_x_at) / RFU ANKRD19P (11752326_a_at) / Fold change /veh ANKRD19P (11752326_a_at) / RFU OR2T12 /// OR2T33 /// OR2T8 (11738714_s_at) / Fold change /veh OR2T12 /// OR2T33 /// OR2T8 (11738714_s_at) / RFU VCAN (11748164_a_at) / Fold change /veh VCAN (11748164_a_at) / RFU JSRP1 (11732532_at) / Fold change /veh JSRP1 (11732532_at) / RFU KRTAP10-11 (11738290_x_at) / Fold change /veh KRTAP10-11 (11738290_x_at) / RFU MYO3A (11730013_a_at) / Fold change /veh MYO3A (11730013_a_at) / RFU EBF3 (11725865_a_at) / Fold change /veh EBF3 (11725865_a_at) / RFU CAMK2N1 (11719241_x_at) / Fold change /veh CAMK2N1 (11719241_x_at) / RFU C5orf56 (11738088_a_at) / Fold change /veh C5orf56 (11738088_a_at) / RFU OLFML3 (11715873_a_at) / Fold change /veh OLFML3 (11715873_a_at) / RFU LOC100653217 /// NTM (11731650_a_at) / Fold change /veh LOC100653217 /// NTM (11731650_a_at) / RFU MAPK11 (11762145_a_at) / Fold change /veh MAPK11 (11762145_a_at) / RFU FIZ1 (11724087_x_at) / Fold change /veh FIZ1 (11724087_x_at) / RFU OASL (11726364_x_at) / Fold change /veh OASL (11726364_x_at) / RFU SOX15 (11748057_x_at) / Fold change /veh SOX15 (11748057_x_at) / RFU CD79A (11719716_a_at) / Fold change /veh CD79A (11719716_a_at) / RFU HIST1H1D (11736915_at) / Fold change /veh HIST1H1D (11736915_at) / RFU CASKIN2 (11723855_a_at) / Fold change /veh CASKIN2 (11723855_a_at) / RFU LOC730098 (11760151_x_at) / Fold change /veh LOC730098 (11760151_x_at) / RFU OR4N2 (11742367_at) / Fold change /veh OR4N2 (11742367_at) / RFU PRRT2 (11749266_a_at) / Fold change /veh PRRT2 (11749266_a_at) / RFU SNX32 (11753110_a_at) / Fold change /veh SNX32 (11753110_a_at) / RFU CDHR5 (11726645_a_at) / Fold change /veh CDHR5 (11726645_a_at) / RFU RCAN1 (11760418_a_at) / Fold change /veh RCAN1 (11760418_a_at) / RFU FAM167A (11723789_a_at) / Fold change /veh FAM167A (11723789_a_at) / RFU FAM26E (11764081_at) / Fold change /veh FAM26E (11764081_at) / RFU ISYNA1 (11749810_s_at) / Fold change /veh ISYNA1 (11749810_s_at) / RFU ACY1 (11761880_at) / Fold change /veh ACY1 (11761880_at) / RFU 11764098_at / Fold change /veh 11764098_at / RFU SAMD14 (11745864_x_at) / Fold change /veh SAMD14 (11745864_x_at) / RFU NPB (11741838_a_at) / Fold change /veh NPB (11741838_a_at) / RFU TMPRSS6 (11731388_a_at) / Fold change /veh TMPRSS6 (11731388_a_at) / RFU KRTAP10-2 (11738614_at) / Fold change /veh KRTAP10-2 (11738614_at) / RFU ARHGAP8 /// PRR5-ARHGAP8 (11727945_x_at) / Fold change /veh ARHGAP8 /// PRR5-ARHGAP8 (11727945_x_at) / RFU KRTAP5-7 /// NADSYN1 (11734609_at) / Fold change /veh KRTAP5-7 /// NADSYN1 (11734609_at) / RFU RASL12 (11751679_a_at) / Fold change /veh RASL12 (11751679_a_at) / RFU CDKN2B (11736163_a_at) / Fold change /veh CDKN2B (11736163_a_at) / RFU PRF1 (11729649_at) / Fold change /veh PRF1 (11729649_at) / RFU, ZNF638 /// ZNF638-IT1 / Fold change vs veh, ZNF638 /// ZNF638-IT1 / RFU, PANK3 / Fold change vs veh, PANK3 / RFU, SH3YL1 / Fold change vs veh, SH3YL1 / RFU, ZEB2 / Fold change vs veh, ZEB2 / RFU, NRIP1 / Fold change vs veh, NRIP1 / RFU, PTTG1IP / Fold change vs veh, PTTG1IP / RFU, CAPN2 / Fold change vs veh, CAPN2 / RFU, MED14 / Fold change vs veh, MED14 / RFU, SNORA58 / Fold change vs veh, SNORA58 / RFU, C1orf63 / Fold change vs veh, C1orf63 / RFU, LRRFIP1 / Fold change vs veh, LRRFIP1 / RFU, NDUFAF7 / Fold change vs veh, NDUFAF7 / RFU, SLC12A2 / Fold change vs veh, SLC12A2 / RFU, IBTK / Fold change vs veh, IBTK / RFU, ESF1 / Fold change vs veh, ESF1 / Fold change vs veh, TMEM50B / RFU, TAOK1 / Fold change vs veh, TAOK1 / RFU, ACBD3 / Fold change vs veh, ACBD3 / RFU, TMA16 / Fold change vs veh, TMA16 / RFU, RWDD3 / Fold change vs veh, RWDD3 / RFU, BCAT1 / Fold change vs veh, BCAT1 / RFU, EDEM3 / Fold change vs veh, EDEM3 / RFU, TMEM33 / Fold change vs veh, TMEM33 / RFU, WDR75 / Fold change vs veh, WDR75 / RFU, AHCTF1 / Fold change vs veh, AHCTF1 / RFU, TFRC / Fold change vs veh, TFRC / RFU, ZDHHC17 / Fold change vs veh, ZDHHC17 / RFU, NOM1 / Fold change vs veh, NOM1 / RFU, ARL8B / Fold change vs veh, ARL8B / RFU, ZBTB11 / Fold change vs veh, ZBTB11 / RFU, TAMM41 / Fold change vs veh, TAMM41 / RFU, KIAA1704 /// LOC100996395 / Fold change vs veh, KIAA1704 /// LOC100996395 / RFU, ING1 / Fold change vs veh, ING1 / RFU, TRMT61B / Fold change vs veh, TRMT61B / RFU, FUBP3 / Fold change vs veh, FUBP3 / RFU, TP53 / Fold change vs veh, TP53 / RFU, TNKS2 / Fold change vs veh, TNKS2 / RFU, ZFP14 / Fold change vs veh, ZFP14 / RFU, ACTR2 / Fold change vs veh, ACTR2 / RFU, PPP3R1 / Fold change vs veh, PPP3R1 / RFU, PIK3R1 / Fold change vs veh, PIK3R1 / RFU, HNRNPA1 / Fold change vs veh, HNRNPA1 / RFU, RNF170 / Fold change vs veh, RNF170 / RFU, ZNF28 / Fold change vs veh, ZNF28 / RFU, RNGTT / Fold change vs veh, RNGTT / RFU, OGT / Fold change vs veh, OGT / RFU, BRD1 / Fold change vs veh, BRD1 / RFU, MARS / Fold change vs veh, MARS / RFU, ZNF655 / Fold change vs veh, ZNF655 / RFU, FAHD1 / Fold change vs veh, FAHD1 / RFU, BDP1 / Fold change vs veh, BDP1 / RFU, LRRCC1 / Fold change vs veh, LRRCC1 / RFU, ARID1A / Fold change vs veh, ARID1A / RFU, ZNF146 / Fold change vs veh, ZNF146 / RFU, ZNF330 / Fold change vs veh, ZNF330 / RFU, GPN3 / Fold change vs veh, GPN3 / RFU, C9orf123 / Fold change vs veh, C9orf123 / RFU, N4BP2L2 / Fold change vs veh, N4BP2L2 / RFU, ARFIP1 / Fold change vs veh, ARFIP1 / RFU, FAM179B / Fold change vs veh, FAM179B / RFU, BCL10 / Fold change vs veh, BCL10 / RFU, UHRF1BP1L / Fold change vs veh, UHRF1BP1L / RFU, BET1 / Fold change vs veh, BET1 / RFU, CNOT2 / Fold change vs veh, CNOT2 / RFU, ZNF268 / Fold change vs veh, ZNF268 / Fold change vs veh, ZNF507 / RFU, DGCR2 / Fold change vs veh, DGCR2 / RFU, WDSUB1 / Fold change vs veh, WDSUB1 / Fold change vs veh, HSP90B1 /// MIR3652 / RFU, ADSS / Fold change vs veh, ADSS / RFU, GK / Fold change vs veh, GK / RFU, ZNF148 / Fold change vs veh, ZNF148 / RFU, TAF9 / Fold change vs veh, TAF9 / RFU, SLC1A5 / Fold change vs veh, SLC1A5 / RFU, SLMO2 / Fold change vs veh, SLMO2 / RFU, ABCC4 / Fold change vs veh, ABCC4 / RFU, LOC101060439 /// RAP1B / Fold change vs veh, LOC101060439 /// RAP1B / RFU, RFX7 / Fold change vs veh, RFX7 / RFU, GTPBP10 / Fold change vs veh, GTPBP10 / RFU, CNEP1R1 / Fold change vs veh, CNEP1R1 / RFU, BIVM-ERCC5 /// ERCC5 / Fold change vs veh, BIVM-ERCC5 /// ERCC5 / RFU, ILF3 / Fold change vs veh, ILF3 / RFU 11762660_at / Fold change /veh 11762660_at / RFU VCAN (11757783_s_at) / Fold change /veh VCAN (11757783_s_at) / RFU DDX43 (11728927_at) / Fold change /veh DDX43 (11728927_at) / RFU KRT8 (11758188_x_at) / Fold change /veh KRT8 (11758188_x_at) / RFU NKD1 (11759106_at) / Fold change /veh NKD1 (11759106_at) / RFU SRD5A1 (11742802_a_at) / Fold change /veh SRD5A1 (11742802_a_at) / RFU TPSAB1 /// TPSB2 (11721975_s_at) / Fold change /veh TPSAB1 /// TPSB2 (11721975_s_at) / RFU GSTM3 (11746129_a_at) / Fold change /veh GSTM3 (11746129_a_at) / RFU IL23R (11737362_x_at) / Fold change /veh IL23R (11737362_x_at) / RFU TMEM51 (11727254_a_at) / Fold change /veh TMEM51 (11727254_a_at) / RFU PIWIL2 (11732686_x_at) / Fold change /veh PIWIL2 (11732686_x_at) / RFU ORM1 (11744905_x_at) / Fold change /veh ORM1 (11744905_x_at) / RFU CCDC152 (11743942_at) / Fold change /veh CCDC152 (11743942_at) / RFU ECM1 (11717891_a_at) / Fold change /veh ECM1 (11717891_a_at) / RFU IL23R (11748794_a_at) / Fold change /veh IL23R (11748794_a_at) / RFU TNFAIP8L3 (11732012_x_at) / Fold change /veh TNFAIP8L3 (11732012_x_at) / RFU MBOAT4 (11741988_at) / Fold change /veh MBOAT4 (11741988_at) / RFU 11764193_at / Fold change /veh 11764193_at / RFU TMEM53 (11763286_at) / Fold change /veh TMEM53 (11763286_at) / RFU MAGEB2 (11727129_at) / Fold change /veh MAGEB2 (11727129_at) / RFU TMEM200A (11744735_a_at) / Fold change /veh TMEM200A (11744735_a_at) / RFU CCDC152 (11751479_a_at) / Fold change /veh CCDC152 (11751479_a_at) / RFU FAM211A (11726209_a_at) / Fold change /veh FAM211A (11726209_a_at) / RFU RGS16 (11746705_a_at) / Fold change /veh RGS16 (11746705_a_at) / RFU VCAN (11755009_s_at) / Fold change /veh VCAN (11755009_s_at) / RFU RHOB (11743442_s_at) / Fold change /veh RHOB (11743442_s_at) / RFU RGS16 (11720943_a_at) / Fold change /veh RGS16 (11720943_a_at) / RFU RGS16 (11720944_at) / Fold change /veh RGS16 (11720944_at) / RFU, VPS4B / Fold change vs veh, VPS4B / RFU, CREB1 / Fold change vs veh, CREB1 / RFU, DNAJC13 / Fold change vs veh, DNAJC13 / RFU, GNAQ / Fold change vs veh, GNAQ / RFU, CDK5R1 / Fold change vs veh, CDK5R1 / RFU, ZRANB3 / Fold change vs veh, ZRANB3 / RFU, CUL4A / Fold change vs veh, CUL4A / RFU, CCNY / Fold change vs veh, CCNY / RFU, UFL1 / Fold change vs veh, UFL1 / RFU, COG3 / Fold change vs veh, COG3 / RFU, DIAPH2 / Fold change vs veh, DIAPH2 / RFU, SKA2 / Fold change vs veh, SKA2 / RFU, AFF3 / Fold change vs veh, AFF3 / RFU, LMF1 / Fold change vs veh, LMF1 / RFU, IPO11 / Fold change vs veh, IPO11 / RFU, DFFB / Fold change vs veh, DFFB / RFU, FOXP1 / Fold change vs veh, FOXP1 / RFU, CARD8 / Fold change vs veh, CARD8 / RFU, STRN3 / Fold change vs veh, STRN3 / RFU, ADK / Fold change vs veh, ADK / RFU, RASSF2 / Fold change vs veh, RASSF2 / RFU, WIPF1 / Fold change vs veh, WIPF1 / RFU, LARP1B / Fold change vs veh, LARP1B / RFU, RASA1 / Fold change vs veh, RASA1 / RFU, RB1 / Fold change vs veh, RB1 / RFU, PPFIA1 / Fold change vs veh, PPFIA1 / RFU, MAT2A / Fold change vs veh, MAT2A / RFU, CCT5 / Fold change vs veh, CCT5 / RFU, WDR92 / Fold change vs veh, WDR92 / RFU, CUX1 / Fold change vs veh, CUX1 / RFU, TTC7A / Fold change vs veh, TTC7A / RFU, TMEM135 / Fold change vs veh, TMEM135 / RFU, DEPTOR / Fold change vs veh, DEPTOR / RFU, CPM / Fold change vs veh, CPM / RFU, DNAJB6 / Fold change vs veh, DNAJB6 / RFU, CACNA2D3 / Fold change vs veh, CACNA2D3 / RFU, DTX4 / Fold change vs veh, DTX4 / RFU, TFCP2 / Fold change vs veh, TFCP2 / RFU, GMCL1 /// GMCL1P1 / Fold change vs veh, GMCL1 /// GMCL1P1 / RFU, AEBP2 / Fold change vs veh, AEBP2 / RFU, SNHG1 /// SNORD22 /// SNORD25 /// SNORD26 /// SNORD27 /// SNORD28 /// SNORD29 /// SNORD31 / Fold change vs veh, SNHG1 /// SNORD22 /// SNORD25 /// SNORD26 /// SNORD27 /// SNORD28 /// SNORD29 /// SNORD31 / Fold change (Aza/veh), C12orf56 (ProbeSet 11735607_a_at) / Fold change (ACY-1035/veh), C12orf56 (ProbeSet 11735607_a_at) / Fold change (Aza/veh), FGFR1OP (ProbeSet 11751329_s_at) / Fold change (ACY-1035/veh), FGFR1OP (ProbeSet 11751329_s_at) / Fold change (Aza/veh), VPS36 (ProbeSet 11739960_a_at) / Fold change (ACY-1035/veh), VPS36 (ProbeSet 11739960_a_at) / RFU SYPL1 (11715823_x_at) / Fold change /veh SYPL1 (11715823_x_at) / RFU IGFBP7 (11715501_s_at) / Fold change /veh IGFBP7 (11715501_s_at) / RFU REEP3 (11722064_at) / Fold change /veh REEP3 (11722064_at) / RFU IGLL1 (11728026_x_at) / Fold change /veh IGLL1 (11728026_x_at): dose or concentration left out as unconfirmed
Conditions: MV-4-11 cells, 48 hours

`Nc1ccc(-c2cccs2)cc1NC(=O)c1ccc2c(c1)cc(C1CC1)n2CCN1CCOCC1` [ACY-1035] was tested, and the “Fold change /veh EBF3 (11725865_a_at)” value was 1.09.
